Data published in patent publication US20220323406A1, “METHODS AND COMPOSITIONS FOR DIFFERENTIATING STEM CELLS” (Massachusetts Institute of Technology, priority 2019, published 2022).

Key:
Settings in all cases: primary screen
[1] = system: ENR+CD organoids (ISC to Paneth cell differentiation); experiment: Primary screen: basal (non-stimulated) lysozyme secretion LYZ.NS, 2.5-D 384-well ENR+CD organoid differentiation; assay type: cell-based, mouse
Excerpt: (§1) High-throughput screening.

[2] = system: ENR+CD organoids (ISC to Paneth cell differentiation); experiment: Primary screen: CCh-stimulated lysozyme secretion LYZ.S, 2.5-D 384-well ENR+CD organoid differentiation; assay type: cell-based, mouse
Excerpt: as §1

ENR+CD organoids = experiment: Primary screen: ATP (CellTiter-Glo 3D, CTG) cell number/viability, 2.5-D 384-well ENR+CD organoids;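 note: compounds given at plating and again on day 3 over a 6-day differentiation from ENR+CV stem-cell-enriched precursors, ATP measured on day 6, plate median as control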

SMILES | Dose.FC.LYZ.NS ([1]; dose 0.08 uM) [log2 fold change] | Z.LYZ.NS (standard z score) ([1]; dose 0.08 uM) | Dose.FC.LYZ.NS ([1]; dose 0.40 uM) [log2 fold change] | Z.LYZ.NS (standard z score) ([1]; dose 0.40 uM) | Dose.FC.LYZ.NS ([1]; dose 2.00 uM) [log2 fold change] | Z.LYZ.NS (standard z score) ([1]; dose 2.00 uM) | Dose.FC.LYZ.NS ([1]; dose 10.00 uM) [log2 fold change] | Z.LYZ.NS (standard z score) ([1]; dose 10.00 uM) | Dose.FC.LYZ.S ([2]; dose 0.08 uM) [log2 fold change] | Dose.FC.LYZ.S ([2]; dose 0.40 uM) [log2 fold change] | Dose.FC.LYZ.S ([2]; dose 2.00 uM) [log2 fold change] | Dose.FC.LYZ.S ([2]; dose 10.00 uM) [log2 fold change] | Dose.FC.CTG (ENR+CD organoids; dose 0.08 uM) [log2 fold change] | Z.CTG (standard z score) (ENR+CD organoids; dose 0.08 uM) | Dose.FC.CTG (ENR+CD organoids; dose 0.40 uM) [log2 fold change] | Z.CTG (standard z score) (ENR+CD organoids; dose 0.40 uM) | Dose.FC.CTG (ENR+CD organoids; dose 2.00 uM) [log2 fold change] | Z.CTG (standard z score) (ENR+CD organoids; dose 2.00 uM) | Dose.FC.CTG (ENR+CD organoids; dose 10.00 uM) [log2 fold change] | Z.CTG (standard z score) (ENR+CD organoids; dose 10.00 uM)
Cc1ccc(NC(=O)C2(c3ccc4c(c3)OC(F)(F)O4)CC2)nc1-c1cccc(C(=O)O)c1 [VX-809 (Lumacaftor)] | 0.073 | 0.634 | −0.041 | −0.353 | −0.032 | −0.279 | −0.082 | −0.713 | 0.218 | −0.027 | −0.073 | −0.117 | 0.177 | 0.423 | −0.062 | −0.149 | −0.145 | −0.346 | 0.032 | 0.076
COc1cc2/c(=N/c3ccc(Br)cc3F)nc[nH]c2cc1OCC1CCN(C)CC1 [Vandetanib (ZD6474)] | −0.068 | −0.594 | −0.091 | −0.792 | −0.271 | −2.356 | −0.298 | −2.594 | −0.139 | −0.054 | −0.384 | −0.494 | −0.648 | −1.547 | −0.366 | −0.874 | −0.874 | −2.089 | −1.206 | −2.880
C[C@]1(c2nc3c(C(N)=O)cccc3[nH]2)CCCN1 [Veliparib (ABT-888)] | 0.075 | 0.649 | 0.139 | 1.211 | 0.023 | 0.203 | −0.062 | −0.537 | 0.105 | 0.179 | −0.016 | −0.136 | 0.128 | 0.307 | 0.055 | 0.132 | −0.024 | −0.057 | −0.218 | −0.521
CCCS(=O)(=O)Nc1ccc(F)c(C(=O)c2c[nH]c3ncc(-c4ccc(Cl)cc4)cc23)c1F [Vemurafenib (PLX4032, RG7204)] | 0.090 | 0.786 | 0.053 | 0.462 | 0.047 | 0.411 | 0.030 | 0.263 | 0.120 | 0.150 | 0.055 | 0.022 | 0.124 | 0.297 | −0.082 | −0.195 | −0.006 | −0.014 | 0.030 | 0.073
N#C[C@@H]1CCCN1C(=O)CNC12CC3CC(CC(O)(C3)C1)C2 [Vildagliptin (LAF-237)] | 0.148 | 1.285 | 0.230 | 2.004 | 0.170 | 1.478 | 0.097 | 0.846 | 0.099 | 0.113 | 0.038 | 0.013 | 0.232 | 0.553 | 0.229 | 0.547 | 0.150 | 0.358 | 0.339 | 0.811
C[C@@H](c1ncncc1F)[C@](O)(Cn1cncn1)c1ccc(F)cc1F [Voriconazole] | 0.252 | 2.192 | 0.193 | 1.682 | 0.067 | 0.588 | 0.018 | 0.153 | 0.180 | 0.120 | 0.097 | 0.048 | 0.258 | – | 0.306 | – | 0.285 | – | 0.328 | –
c1ccc(NCc2ccc(CNc3ccccn3)cc2)nc1 [WZ811] | 0.154 | 1.337 | 0.019 | 0.162 | 0.094 | 0.815 | 0.005 | 0.045 | 0.296 | 0.007 | 0.074 | 0.019 | 0.140 | 0.334 | −0.034 | −0.082 | 0.077 | 0.184 | 0.044 | 0.104
